# Active and inactive are the calls of the source. The rule behind the calls is not given here.
# What was measured:
# A549 = assay: Cytotoxicity against human A549 cells at 100 uM after 48 hrs by cell titer glo assay; assay type: cell-based; settings: a549, 48 h
# Leishmania infantum [1] = assay: Antiparasitic activity against Leishmania infantum MOM/MA67ITMAP263 amastigotes infected in human THP1 cells at 10 uM after 72 hrs by steady-glo luminescence assay; assay type: functional
# WI-38 = assay: Cytotoxicity against human WI38 cells at 100 uM after 48 hrs by cell titer glo assay; assay type: cell-based; settings: wi-38, 48 h
# [2] = Cytotoxicity against human THP1 cells after 72 hrs by MTT assay; assay type: cell-based; settings: THP-1 cells, read-out: NOAEL
# in vitro = settings: human, THP-1 cells
# Description: Selectivity index, ratio of CC50 for human THP1 cells to EC50 for Trypanosoma brucei brucei Lister 427 bloodstream forms
# 786-0 = assay: Mitochondrial toxicity in human 786-O cells incubated for 6 hrs by mitotracker red staining based-uptake method; assay type: cell-based; settings: 786-0, 6 h
# Trypanosoma brucei [3] = assay: Inhibition of Trypanosoma brucei PTR1 at 50 uM using H2B as substrate incubated for 10 mins followed by addition of NADPH measured for 10 to 50 mins
# Cytochrome P450 1A2 = target: T1, Cytochrome P450 1A2 (Homo sapiens, UniProt P05177); assay: (§1) Inhibition of human microsomal CYP1A2 expressed in baculovirus infected BTI-TN-5B1-4 cells at 10 uM incubated for 30 mins by luciferase assay; assay type: ADME; settings: bti-tn-5b1-4, 0.5 h, 10 µM
# T1 sequence (P05177 whole entry): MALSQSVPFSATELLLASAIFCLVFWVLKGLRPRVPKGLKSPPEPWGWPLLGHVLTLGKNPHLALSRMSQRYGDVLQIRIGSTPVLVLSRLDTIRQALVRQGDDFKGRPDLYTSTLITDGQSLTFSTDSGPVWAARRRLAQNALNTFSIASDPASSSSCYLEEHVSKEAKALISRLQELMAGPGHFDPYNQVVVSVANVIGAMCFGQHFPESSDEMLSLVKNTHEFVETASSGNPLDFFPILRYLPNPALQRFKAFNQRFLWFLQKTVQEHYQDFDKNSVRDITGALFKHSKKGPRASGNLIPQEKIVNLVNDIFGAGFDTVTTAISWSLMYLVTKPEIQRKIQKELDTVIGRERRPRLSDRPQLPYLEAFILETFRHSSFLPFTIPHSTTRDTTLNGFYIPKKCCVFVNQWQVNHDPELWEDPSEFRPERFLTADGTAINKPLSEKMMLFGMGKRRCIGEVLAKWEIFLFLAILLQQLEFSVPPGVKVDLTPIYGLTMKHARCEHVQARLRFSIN
# [4] = tested on: Trypanosoma brucei brucei; assay: Antitrypanosomal activity against Trypanosoma brucei brucei Lister 427 bloodstream forms assessed as synergy coefficient at 2.5 to 5 uM after 72 hrs in presence of MTX by resazurin-based assay; assay type: functional
# THP-1 = assay: Cytotoxicity against human THP1 cells at 12.5 to 50 uM after in presence of MTX by MTT assay; assay type: cell-based; settings: thp-1, 50 µM
# [5] = tested on: Trypanosoma brucei brucei; assay: Antitrypanosomal activity against Trypanosoma brucei brucei Lister 427 bloodstream forms assessed as maximum synergy coefficient at 1.25 after 72 hrs in presence of MTX by resazurin-based assay; assay type: functional
# [6] = tested on: Trypanosoma brucei brucei; assay: Antitrypanosomal activity against Trypanosoma brucei brucei Lister 427 bloodstream forms at 10 uM after 72 hrs by resazurin-based assay; assay type: functional, organism-based
# CYP1A2 = CYP1A2 (Homo sapiens, UniProt P05177); assay: as §1; assay type: ADME
# Trypanosoma cruzi = assay: Antitrypanosomal activity against Trypanosoma cruzi Y trypomastigotes infected in human HG39 cells after 48 hrs by RT-PCR assay
# Leishmania infantum [7] = assay: Antiparasitic activity against Leishmania infantum MOM/MA67ITMAP263 amastigotes infected in human THP1 cell after 72 hrs by steady-glo luminescence assay; assay type: functional, organism-based; settings: MOM/MA67ITMAP263, THP-1, 72 h
# [8] = tested on: Trypanosoma brucei brucei; assay: Antitrypanosomal activity against Trypanosoma brucei brucei Lister 427 bloodstream forms after 72 hrs by resazurin-based assay; assay type: functional, organism-based; settings: Lister 427, 72 h
# Trypanosoma brucei [9] = assay: Inhibition of Trypanosoma brucei PTR1 using H2B as substrate incubated for 10 mins followed by addition of NADPH measured for 10 to 50 mins
structure (smiles),measurement,setting,value
COc1ccc2c(=O)c(O)c(-c3cc(OC)c(OC)c(OC)c3)oc2c1,Activity,A549,Non-Toxic
same,Activity,Leishmania infantum [1],35%
same,Activity,WI-38,Non-Toxic
same,MNTC at 72 h,[2],20 µM
same,selectivity ratio,in vitro,17
same,Activity,786-0,Non-Toxic
same,inhibition,Trypanosoma brucei [3],inactive
same,inhibition (INH),Cytochrome P450 1A2,Not Active
COc1ccc(-c2oc3ccc(OC)cc3c(=O)c2O)cc1,Activity,A549,Non-Toxic
same,Activity,WI-38,Non-Toxic
same,CI,[4],>1.5
same,MNTC at 72 h,[2],20 µM
same,Activity,THP-1,Non-Toxic
same,selectivity ratio,in vitro,1
same,Activity,786-0,Non-Toxic
same,CI,[5],3.1
same,Activity,[6],Active
same,"inhibition at 0.5 h, 10 µM",CYP1A2,72%
CC1CS(=O)(=O)CCN1/N=C/c1ccc([N+](=O)[O-])o1 (configuration not stated) [NIFURTIMOX],IC50,Trypanosoma cruzi,2.2 µM
CCCCCCCCCCCCCCCCOP(=O)([O-])OCC[N+](C)(C)C [MILTEFOSINE],IC50,Leishmania infantum [7],2.65 µM
O=c1c(O)c(-c2ccc(O)c(O)c2)oc2cc(O)cc(O)c12,IC50,[8],< 30 µM
same,inhibition,Trypanosoma brucei [9],inactive
